Literature values in paper PMC4105567, “Aurora Kinases as Druggable Targets in Pediatric Leukemia: Heterogeneity in Target Modulation Activities and Cytotoxicity by Diverse Novel Therapeutic Agents” (PLoS ONE, 2014).

Tested on: Aurora-A
Set-up: method as in earlier work
Settings: literature values; ref [10],[22],[27],[40],[44]–[64] as listed per inhibitor in Table 1; read-out: Targets (IC50 Value): Aurora-A; cited from earlier work

**Q.** Which IC50 does the source give for `CCN1CCN(C(=O)Cc2ccc(Nc3ncc(F)c(Nc4ccc(C(=O)Nc5ccccc5Cl)cc4)n3)cc2)CC1` [Aurora A Inhibitor I] here?
**A.** 3 nM
